This is an account of results in ChEMBL document CHEMBL1136945, “Antimalarial activity of thiosemicarbazones and purine derived nitriles” (Bioorg Med Chem Lett, 2009).

What all share (format): functional, organism-based
Assay [1] relates to Plasmodium falciparum. Put plainly: (§1) Antimalarial activity as reduced parasitaemia after 72 hrs against chloroquine-resistant Plasmodium falciparum K1 infected human O+ erythrocytes by DNA stain without pepstatin. Conditions: K1, 72 h.
Assay [2] deals with Plasmodium falciparum. The assay is described as §1. Particulars: K1, 72 h. The source holds these as a separate data set.
Assay [3] deals with Plasmodium falciparum. Description: Antimalarial activity as reduced parasitaemia after 72 hrs against chloroquine-sensitive Plasmodium falciparum 3D7 infected human O+ erythrocytes by DNA stain without pepstatin. Conditions: 3D7, 72 h.
Assay [4] has as its system Plasmodium falciparum. Description: Antimalarial activity as reduced parasitaemia after 72 hrs against chloroquine-sensitive Plasmodium falciparum 3D7 infected human O+ erythrocytes by DNA stain with pepstatin. Conditions: 3D7, 72 h.

pEC50: −log10 of the molar value.

As a reminder, the pEC50 is the negative decadic logarithm of the EC50, by convention in mol/L. A higher pEC50 goes with a low EC50. Turning to `N#Cc1nc(NCc2ccc(-c3ccco3)cc2)c2ncn(CCCO)c2n1`, the pEC50 was 4.89 in the assay on Plasmodium falciparum [1], 4.92 in the assay with Plasmodium falciparum [2], 4.74 in the assay with Plasmodium falciparum [3] and 4.92 with Plasmodium falciparum [4].

`Cc1ccc(/C(=N/NC(N)=S)c2cc(Cl)cc(Cl)c2)cc1`: the pEC50 in the assay with Plasmodium falciparum [1] is less than 4.52; in the assay with Plasmodium falciparum [2], less than 4.52; with Plasmodium falciparum [3], less than 4.52; with Plasmodium falciparum [4] it was 4.52.

As for `NC(=S)N/N=C(\c1cc(Cl)cc(Cl)c1)c1cccs1`, the pEC50 in the assay with Plasmodium falciparum [1] was less than 4.52; with Plasmodium falciparum [2], less than 4.52; in the assay with Plasmodium falciparum [3] it was less than 4.52; with Plasmodium falciparum [4], 4.52.

Consider `CC(=O)Nc1cccc(CNc2nc(C#N)nc3c2ncn3CCCO)c1`, for which the pEC50 was 4.82 with Plasmodium falciparum [1], 4.96 with Plasmodium falciparum [2], 4.82 with Plasmodium falciparum [3] and 5.22 in the assay on Plasmodium falciparum [4].

In the case of `C=Cc1ccc(-c2cccc(CNc3nc(C#N)nc4c3ncn4CCCO)c2)cc1`, the pEC50 with Plasmodium falciparum [1], in the assay with Plasmodium falciparum [2], in the assay with Plasmodium falciparum [3] and in the assay on Plasmodium falciparum [4] was less than 4.52 throughout.

As for `N#Cc1nc(NCc2cccc(-c3ccco3)c2)c2ncn(CCCO)c2n1`, the negative logarithm of the EC50 (pEC50) in the assay on Plasmodium falciparum [1], with Plasmodium falciparum [2], in the assay on Plasmodium falciparum [3] and in the assay with Plasmodium falciparum [4] was less than 4.52 in each case.

For `N#Cc1nc(NCc2ccc(-c3cccc(Cl)c3)cc2)c2ncn(CCCO)c2n1`, the pEC50 in the assay with Plasmodium falciparum [1] is 4.70; in the assay on Plasmodium falciparum [2], 4.74; in the assay with Plasmodium falciparum [3], 4.70; with Plasmodium falciparum [4], 4.85.

As for `N#Cc1nc(NCc2ccc(Cl)c(Cl)c2)c2c(n1)N(Cc1cccc(C(F)(F)F)c1)CN2`, the pEC50 is 4.52 in the assay with Plasmodium falciparum [1], 4.62 in the assay with Plasmodium falciparum [2], 4.57 in the assay on Plasmodium falciparum [3] and 4.52 in the assay on Plasmodium falciparum [4].
